Holding throughout (format): cell-based
The target of experiment [1] is T1, CaV1.2 channel (α1C subunit) (Rattus norvegicus, UniProt P22002).
T1 construct: gene Cacna1c; native channel in freshly isolated rat tail artery myocytes
The experiment can be described thus: whole-cell patch-clamp, complete block of IBa1.[…] at […].

Experiment [2] concerns the target T1, CaV1.2 channel (α1C subunit). Kind of experiment: whole-cell patch-clamp, Ba2+ current (IBa1.[…]). As to conditions: read-out: % reduction in current amplitude at 100 μM.
Experiment [3] shares this target. The experiment can be described thus: whole-cell patch-clamp, Ba2+ current (IBa1.[…]). (The patch-clamp technique gives a direct electrical read-out from membranes.)

Read-outs that look alike come from different tables or passages of the source.

We go through 5 molecules from PMC11642981, “Bioguided Identification of Polymethoxyflavones as Novel Vascular CaV1.2 Channel Blockers from Citrus Peel” (Molecules, 2024).

T1 sequence (P22002 whole entry): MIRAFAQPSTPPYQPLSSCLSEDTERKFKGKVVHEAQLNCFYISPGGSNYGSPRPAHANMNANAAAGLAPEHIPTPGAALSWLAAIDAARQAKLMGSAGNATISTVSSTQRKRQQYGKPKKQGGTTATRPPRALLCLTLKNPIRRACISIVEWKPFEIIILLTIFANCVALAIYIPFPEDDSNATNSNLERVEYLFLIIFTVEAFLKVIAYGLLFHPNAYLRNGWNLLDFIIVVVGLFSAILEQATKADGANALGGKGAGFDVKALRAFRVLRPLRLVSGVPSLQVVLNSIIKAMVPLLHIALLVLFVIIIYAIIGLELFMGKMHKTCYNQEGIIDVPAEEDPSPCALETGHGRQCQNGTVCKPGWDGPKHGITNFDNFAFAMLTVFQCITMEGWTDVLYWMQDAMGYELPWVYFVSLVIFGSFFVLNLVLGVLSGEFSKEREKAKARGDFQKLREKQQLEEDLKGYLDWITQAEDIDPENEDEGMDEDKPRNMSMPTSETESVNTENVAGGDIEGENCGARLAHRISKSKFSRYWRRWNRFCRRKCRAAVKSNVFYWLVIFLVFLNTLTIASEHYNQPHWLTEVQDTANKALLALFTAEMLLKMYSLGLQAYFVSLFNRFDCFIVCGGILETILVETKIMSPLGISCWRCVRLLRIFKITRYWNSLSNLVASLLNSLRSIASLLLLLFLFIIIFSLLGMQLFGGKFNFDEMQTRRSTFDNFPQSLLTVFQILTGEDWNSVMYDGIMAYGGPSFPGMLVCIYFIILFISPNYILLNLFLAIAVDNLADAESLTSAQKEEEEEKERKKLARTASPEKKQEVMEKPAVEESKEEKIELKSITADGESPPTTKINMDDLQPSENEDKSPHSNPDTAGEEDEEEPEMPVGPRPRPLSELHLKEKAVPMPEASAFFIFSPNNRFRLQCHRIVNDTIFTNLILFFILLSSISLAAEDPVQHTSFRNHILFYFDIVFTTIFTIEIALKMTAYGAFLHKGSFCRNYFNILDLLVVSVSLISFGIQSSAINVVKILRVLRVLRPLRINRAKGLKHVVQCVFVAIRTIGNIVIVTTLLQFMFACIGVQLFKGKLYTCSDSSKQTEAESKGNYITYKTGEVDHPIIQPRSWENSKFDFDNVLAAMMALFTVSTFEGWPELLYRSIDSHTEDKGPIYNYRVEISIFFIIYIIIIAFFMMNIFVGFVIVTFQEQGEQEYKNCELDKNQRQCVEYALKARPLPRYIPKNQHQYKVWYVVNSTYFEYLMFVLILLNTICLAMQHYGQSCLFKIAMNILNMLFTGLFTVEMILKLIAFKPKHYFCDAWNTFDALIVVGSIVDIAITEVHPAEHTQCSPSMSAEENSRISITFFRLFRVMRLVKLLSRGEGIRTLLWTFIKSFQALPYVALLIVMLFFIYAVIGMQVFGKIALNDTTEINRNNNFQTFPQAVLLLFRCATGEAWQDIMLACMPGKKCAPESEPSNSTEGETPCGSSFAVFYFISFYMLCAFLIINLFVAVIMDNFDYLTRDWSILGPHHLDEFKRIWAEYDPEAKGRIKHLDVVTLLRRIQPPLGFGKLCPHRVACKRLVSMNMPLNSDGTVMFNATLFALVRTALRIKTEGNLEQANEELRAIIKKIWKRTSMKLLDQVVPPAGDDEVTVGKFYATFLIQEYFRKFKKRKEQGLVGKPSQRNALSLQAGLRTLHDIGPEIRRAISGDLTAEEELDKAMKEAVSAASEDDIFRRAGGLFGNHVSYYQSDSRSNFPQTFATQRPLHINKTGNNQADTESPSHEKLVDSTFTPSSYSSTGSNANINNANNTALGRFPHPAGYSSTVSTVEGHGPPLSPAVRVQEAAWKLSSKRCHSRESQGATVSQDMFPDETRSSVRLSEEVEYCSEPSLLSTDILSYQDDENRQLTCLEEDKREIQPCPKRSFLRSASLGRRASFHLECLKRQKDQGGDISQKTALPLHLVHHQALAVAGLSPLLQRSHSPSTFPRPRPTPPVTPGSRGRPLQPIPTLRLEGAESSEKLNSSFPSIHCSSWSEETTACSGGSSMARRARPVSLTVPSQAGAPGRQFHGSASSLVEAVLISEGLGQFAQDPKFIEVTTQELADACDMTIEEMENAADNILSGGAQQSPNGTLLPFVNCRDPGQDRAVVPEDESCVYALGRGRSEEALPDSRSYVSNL

On to `COC(=O)C1=C(C)NC(C)=C(C(=O)OC)C1c1ccccc1[N+](=O)[O-]` [nifedipine], for which the “whole-cell patch-clamp, complete block of IBa1.2 at 10 μM” value in experiment [1] is reported as 10 µM (completely blocked IBa1.2).

On to `COc1ccc(-c2cc(=O)c3c(OC)c(OC)c(OC)c(OC)c3o2)cc1OC` [nobiletin], for which, in experiment [2], the inhibition at 100 µM was 50%. One may read the IC50 as the concentration at which inhibition is half-maximal. Molecule `COc1ccc(-c2cc(=O)c3c(OC)c(OC)c(OC)cc3o2)cc1` [scutellarein tetramethyl ether] had an IC50 in experiment [3] of roughly 33.1 µM. For `COc1ccc(-c2cc(=O)c3c(OC)c(OC)c(OC)cc3o2)cc1OC` [sinensetin], in experiment [2], the inhibition at 100 µM turned out to be 50%.

Consider `COc1ccc(-c2cc(=O)c3c(OC)c(OC)c(OC)c(OC)c3o2)cc1` [tangeretin], for which the IC50 in experiment [3] (read-out: IC50 (converted)) was roughly 66.1 µM.
